≈ marks a conversion by molar mass, not a printed value. Bounds are passed on as bounds.

The term MIC denotes the smallest concentration in the dilution series that meets the test's criterion for growth inhibition.

Assay [1] relates to PAO1 one-step mutants. Description: MIC, MHB microdilution, mutants summarised as a group. Type of assay: cell-based, Pseudomonas aeruginosa. As for the experimental part: MIC for RW01 was also tested.
Selection of resistant mutants was performed for minocycline with and without RW01 in three independent replicates for wild-type P. aeruginosa reference strain PAO1. Tubes containing Mueller-Hinton broth (MHB) were inoculated and incubated for 24 h at 37°C. Afterward, 1/100 dilution of each tube was incubated at 37°C in MHB to late-exponential growth phase, measured by spectrophotometry at OD600. […] A control plate without antibiotic was included as inoculum control. After overnight incubation, colony counting of each treatment was performed to analyze the generation of resistant population. The mutant prevention concentration (MPC) was defined as the lowest concentration of antibiotic yielding no growth of resistant mutants. Selected mutants were checked for susceptibility profiles by using a Sensititre custom plate (Thermo Fisher Scientific, Massachusetts, USA) for Gram-negative bacteria, following the manufacturer’s instructions.

Assay [2] relates to PAO1 mutant MIN16_3, nfxB(nt79∆14), pilB(N349K). Description: MIC, MHB microdilution. The conditions noted are these: Pseudomonas aeruginosa, PAO1, read-out: MIC, MHB microdilution. Background: Dilution methods test growth across graded concentrations, often in twofold steps.
Assay [3] has as its system PAO1 mutant MIN2_RW01_3, parS(V152A). As to the kind of experiment: MIC, MHB microdilution. The conditions noted are these: Pseudomonas aeruginosa, PAO1, read-out: MIC, MHB microdilution.
Assay [4] has as its system PAO1 mutant MIN16_2, nalC(aa9∆4), pilQ(nt46∆1). Description: MIC, MHB microdilution. The conditions noted are these: Pseudomonas aeruginosa, PAO1, read-out: MIC, MHB microdilution.
For assay [5], the system named is PAO1 mutant MIN2_RW01_2, pmrB(M292T). As to the kind of experiment: MIC, MHB microdilution. To be noted: Pseudomonas aeruginosa, PAO1, read-out: MIC, MHB microdilution.
For assay [6], the system named is PAO1 mutant MIN32_1, mexR(R63H), pilB(N349K), PA0646(V316G). Description: MIC, MHB microdilution. The conditions noted are these: Pseudomonas aeruginosa, PAO1, read-out: MIC, MHB microdilution.
Assay [7] has as its system PAO1 mutant MIN8_3, pilZ(nt18InsT). As to the kind of experiment: MIC, MHB microdilution. The conditions noted are these: Pseudomonas aeruginosa, PAO1, read-out: MIC, MHB microdilution.

For the molecule `CN(C)c1ccc(O)c2c1C[C@H]1C[C@H]3[C@H](N(C)C)C(O)=C(C(N)=O)C(=O)[C@@]3(O)C(O)=C1C2=O` [Minocycline, minocycline], the MIC in assay [1] (Pseudomonas aeruginosa, PAO1, read-out: highest MIC among the mutants) was no more than 64 µg/mL; in assay [2] it was 16 to 32 µg/mL (≈ 35 to 69.9 µM); in assay [3], 16 µg/mL (≈ 35 µM); in assay [4], 16 µg/mL (≈ 35 µM); in assay [5], 16 to 32 µg/mL (≈ 35 to 69.9 µM); in assay [6] it was 32 to 64 µg/mL (≈ 69.9 to 140 µM). In addition, the minimal inhibitory concentration (MIC) in assay [7] was 16 µg/mL (≈ 35 µM). In addition, in assay [1] (agent alone, both mutant types, for minocycline the typical range), the “MIC range over the tested mutants” value fell in the range of 16 to 32 µg/mL. Moreover, the “MIC of the minocycline-RW01 combination” value in assay [1] (mutants selected by minocycline + RW01) was 4.0 to 8.0 µg/mL.

Values taken from paper PMC11823630, “In vitro potentiation of tetracyclines in Pseudomonas aeruginosa by RW01, a new cyclic peptide” (Antimicrobial Agents and Chemotherapy, 2024).
